We go through two compounds from US20050154536A1, “Two-part drug discovery system” (The University of Pittsburgh - of the Commonwealth System …, priority 2001, published 2005).

In one series the test system is RAW 264.7 cells. Briefly: Steady-state expression of TNF and iNOS transcripts in RAW 264.7 cells. Format: cell-based, murine. The note with it: RAW 264.7 cells incubated with LPS.
In series [1] the test system is LPS-stimulated RAW 264.7 murine macrophage-like cells. The settings on record: LPS-stimulated RAW 264.7 cells; concentration-dependent.
The next series concerns C57B1/6 mice. Description: Endotoxemia protocol in C57B1/6 mice (LPS alone). The class given is in vivo. The protocol: Mice: All animal experiments were approved by the Institutional Animal Care and Use Committee of the University of Pittsburgh. All studies were carried out in C57B1/6 mice (6-10 wk old mice; Charles River Laboratories, Charles River, Me.).
Endotoxemia, in which LPS is directly introduced into an animal, is a highly reproducible means for inducing acute systemic inflammation. […] Circulating levels of TNF and IL-10 increase rapidly and decay quickly, whereas IL-6 levels peak at approximately 2-3 h and decay more slowly. The levels of NO, measured as the stable reaction product NO2^−NO3^−, remain elevated for 24 h. Levels of TNF and NO2^−/NO3^− seem to be saturated at 3 mg/kg whereas IL-6 and IL-10 saturate at 6mg/kg (FIG. 8): at 12 mg/kg (FIG. 9), the levels of most analytes are not much higher as compared to those of animals treated with 6 mg/kg LPS.

For the compound `NC(=O)C1=CN([C@@H]2O[C@H](COP(=O)(O)OP(=O)(O)OC[C@H]3O[C@@H](n4cnc5c(N)ncnc54)[C@H](O)[C@@H]3O)[C@@H](O)[C@H]2O)C=CC1` [NAD+, Reduced nicotinamide adenine dinucleotide], in the series with RAW 264.7 cells, the “steady-state expression of TNF transcripts” value was “decreased” and the “steady-state expression of iNOS transcripts” value is given as “decreased”. Moreover, in series [1], the “concentration of NO2−/NO3− in supernatants” value was “decreased” and the “concentration of TNF-α in supernatants” value is “decreased”.
lipopolysaccharide [LPS]: the “survival until final time point” value in the series on C57B1/6 mice (LPS 3, 6 or 12 mg/kg intraperitoneally, 24 h following injection) is on record as “All of the mice survived”. Further, the “time of IL-6 peak level in circulation” value with C57B1/6 mice (LPS 3 or 6 mg/kg intraperitoneally) was in the range of 2 to 3 h. In addition, in the series with RAW 264.7 cells, the “steady-state expression of TNF transcripts” value is reported as “markedly increased” and the “steady-state expression of iNOS transcripts” value is “markedly increased”.
